Key:
[1] = tested on: interleukin-2 (IL-2) production in a B cell lymphoma cell line; experiment: suppression of interleukin-2 (IL-2) production in a B cell lymphoma cell line; assay type: cell-based; settings: 100 micromolar (μM) concentrations of the compounds, preliminary biological testing
Text: In some embodiments, the presently disclosed subject matter provides phainanoid analogs, as well as compounds that can be used as synthetic intermediates in preparing phainanoids and phainanoid analogs. In particular, the presently disclosed phainanoid analogs include the benzofuran-based 4,5-spirocycle with the strained exocyclic olefin motif present in the “western” part of the natural product phainanoids. Given the inclusion of this motif, it is believed that the presently disclosed phainanoid analogs can be useful as novel immunosuppressive agents, e.g., for the treatment of diseases characterized by an aberrant immune response, such as autoimmune and/or inflammatory diseases, as well as during transplant operations.

| Structure (SMILES) | melting point | immunosuppressive activity (suppression of interleukin-2 (IL-2) production) [1] |
| --- | --- | --- |
| C[C@]12C[C@@]3(Oc4ccccc4C3=O)C1=CC[C@]1(C)c3ccccc3CC[C@@H]21 [Compound 8] | 174 to 177 °C | complete suppression |
| C[C@]1(/C=C2\Oc3ccccc3C2=O)[C@@H](O)CC[C@]2(C)c3ccccc3CC[C@@H]12 [Compound 25] | – | complete suppression |
| C[C@@]12CCCC=C1[C@@]1(C2)Oc2ccccc2C1=O [Compound 7] | – | complete suppression |

Reference: US11505534B2, “Highly diastereoselective construction of the 4,5-spirocycle via palladium-catalyzed intramolecular alkenylation” (The University of Chicago, priority 2017, dated 2022)
